From patent US20250361230A1, “LATS Inhibitors and Uses Thereof” (The USA, as Represented by the Secretary, Dept. of Heath …, priority 2022, published 2025)

Columns and labels:
Type in all cases: biochemical
AKT = AKT (Homo sapiens, UniProt P31749); assay: RBC HotSpot kinase assay (33P-ATP, P81 filter-binding), AKT; conditions: Table 28, biochemical kinase assay; read-out: AKT IC50
Summary of the method: (§1)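 Hepes pH 7.5/MgCl2/EGTA/Brij35/BSA/Na3VO4/DTT buffer, cofactors per kinase; cpd acoustically dispensed, 20 min preinc RT; start w/ 33P-ATP, 2 h RT; P81 filter readout; 10-pt singlet IC50.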

LATS2 = target: T1, LATS2 (Homo sapiens, UniProt Q9NRM7); assay: RBC HotSpot kinase assay (33P-ATP, P81 filter-binding), LATS2; conditions: Table 28, biochemical kinase assay; read-out: LATS2 IC50
T1 sequence (Q9NRM7 1-1088): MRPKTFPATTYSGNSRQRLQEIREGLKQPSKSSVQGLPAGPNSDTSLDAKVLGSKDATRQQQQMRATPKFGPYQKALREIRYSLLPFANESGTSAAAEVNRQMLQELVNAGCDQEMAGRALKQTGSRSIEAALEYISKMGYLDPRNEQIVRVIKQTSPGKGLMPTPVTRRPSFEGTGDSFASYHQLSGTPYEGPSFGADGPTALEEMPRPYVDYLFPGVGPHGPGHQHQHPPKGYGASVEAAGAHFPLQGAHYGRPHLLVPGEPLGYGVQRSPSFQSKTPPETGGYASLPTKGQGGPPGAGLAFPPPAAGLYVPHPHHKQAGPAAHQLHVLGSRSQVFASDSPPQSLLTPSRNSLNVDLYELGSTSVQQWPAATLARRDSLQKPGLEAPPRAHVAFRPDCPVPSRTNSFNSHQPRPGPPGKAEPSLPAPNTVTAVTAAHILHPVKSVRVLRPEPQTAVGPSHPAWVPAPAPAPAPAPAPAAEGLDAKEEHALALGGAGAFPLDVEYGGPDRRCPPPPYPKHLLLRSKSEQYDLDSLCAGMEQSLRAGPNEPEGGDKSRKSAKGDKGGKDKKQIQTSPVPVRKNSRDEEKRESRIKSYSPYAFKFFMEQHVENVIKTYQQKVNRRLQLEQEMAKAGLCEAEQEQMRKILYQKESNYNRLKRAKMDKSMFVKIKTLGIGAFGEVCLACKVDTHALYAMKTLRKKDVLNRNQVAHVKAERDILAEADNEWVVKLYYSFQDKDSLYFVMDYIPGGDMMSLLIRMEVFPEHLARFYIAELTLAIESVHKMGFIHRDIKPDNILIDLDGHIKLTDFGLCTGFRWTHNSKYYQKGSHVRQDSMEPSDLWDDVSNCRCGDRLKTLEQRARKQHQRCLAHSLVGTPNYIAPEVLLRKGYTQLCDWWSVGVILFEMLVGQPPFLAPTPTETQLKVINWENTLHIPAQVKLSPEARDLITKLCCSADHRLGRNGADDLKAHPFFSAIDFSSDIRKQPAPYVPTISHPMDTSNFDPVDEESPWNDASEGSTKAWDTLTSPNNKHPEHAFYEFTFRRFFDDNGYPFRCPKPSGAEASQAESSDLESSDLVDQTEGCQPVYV
Summary of the method: as §1

LATS1 = target: T2, LATS1 (Homo sapiens, UniProt O95835); assay: RBC HotSpot kinase assay (33P-ATP, P81 filter-binding), LATS1; conditions: Table 28, biochemical kinase assay; read-out: LATS1 IC50
T2 sequence (O95835 1-1130): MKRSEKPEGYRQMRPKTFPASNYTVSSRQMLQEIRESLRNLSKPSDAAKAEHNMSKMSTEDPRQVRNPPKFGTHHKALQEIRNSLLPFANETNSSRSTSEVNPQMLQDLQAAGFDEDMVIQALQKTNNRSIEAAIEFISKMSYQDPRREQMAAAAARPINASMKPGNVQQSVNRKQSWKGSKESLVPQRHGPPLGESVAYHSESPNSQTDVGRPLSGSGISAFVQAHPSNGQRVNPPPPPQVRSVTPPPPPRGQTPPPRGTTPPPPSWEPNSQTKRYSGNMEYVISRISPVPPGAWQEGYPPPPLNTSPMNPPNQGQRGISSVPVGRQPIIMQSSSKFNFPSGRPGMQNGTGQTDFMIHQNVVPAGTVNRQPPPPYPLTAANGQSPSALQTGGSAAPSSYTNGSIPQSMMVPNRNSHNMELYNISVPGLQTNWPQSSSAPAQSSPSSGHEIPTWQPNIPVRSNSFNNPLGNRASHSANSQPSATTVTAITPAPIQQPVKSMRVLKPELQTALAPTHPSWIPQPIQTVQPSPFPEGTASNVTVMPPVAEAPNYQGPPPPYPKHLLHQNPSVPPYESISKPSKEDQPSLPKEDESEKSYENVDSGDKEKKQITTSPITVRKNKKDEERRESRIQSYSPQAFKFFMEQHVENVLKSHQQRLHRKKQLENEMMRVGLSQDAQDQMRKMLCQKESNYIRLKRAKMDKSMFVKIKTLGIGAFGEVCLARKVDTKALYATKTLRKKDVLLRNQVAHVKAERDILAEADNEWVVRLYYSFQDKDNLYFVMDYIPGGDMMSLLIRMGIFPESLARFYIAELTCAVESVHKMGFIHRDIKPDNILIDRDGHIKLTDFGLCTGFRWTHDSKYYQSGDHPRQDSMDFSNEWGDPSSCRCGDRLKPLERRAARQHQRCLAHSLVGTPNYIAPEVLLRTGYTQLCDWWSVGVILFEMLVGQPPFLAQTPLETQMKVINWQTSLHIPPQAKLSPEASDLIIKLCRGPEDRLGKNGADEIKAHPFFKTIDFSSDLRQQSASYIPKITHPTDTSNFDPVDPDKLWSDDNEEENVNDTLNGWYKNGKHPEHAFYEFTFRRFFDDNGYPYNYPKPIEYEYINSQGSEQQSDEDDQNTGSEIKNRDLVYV
Summary of the method: as §1

Chain of AKT (P31749 whole entry): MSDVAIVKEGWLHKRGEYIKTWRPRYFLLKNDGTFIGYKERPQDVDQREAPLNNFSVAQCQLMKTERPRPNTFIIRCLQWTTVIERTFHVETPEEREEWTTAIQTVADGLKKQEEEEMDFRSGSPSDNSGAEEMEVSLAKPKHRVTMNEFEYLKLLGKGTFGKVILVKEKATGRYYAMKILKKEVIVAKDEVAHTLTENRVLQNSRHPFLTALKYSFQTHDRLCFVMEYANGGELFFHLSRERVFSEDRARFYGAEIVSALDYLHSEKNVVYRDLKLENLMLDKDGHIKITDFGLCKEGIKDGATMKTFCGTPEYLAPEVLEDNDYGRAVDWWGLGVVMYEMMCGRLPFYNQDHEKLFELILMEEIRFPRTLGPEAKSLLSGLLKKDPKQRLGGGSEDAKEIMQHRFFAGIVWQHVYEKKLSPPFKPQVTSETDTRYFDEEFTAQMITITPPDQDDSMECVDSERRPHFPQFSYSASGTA

Row | IC50 (AKT) | IC50 (LATS2) | IC50 (LATS1) | Structure (SMILES)
1 | 939 nM | 3.7 nM | 11.3 nM | Cc1cc(-c2ccnc3[nH]cc(F)c23)cc(F)c1[C@@]1(O)[C@H](C)CN(C(=O)CN(C)C)C[C@@H]1C [Compound 71, 2-(dimethylamino)-1-((3S,4s,5R)-4-(2-fluoro-4-(3-fluoro-1H-pyrrolo[2,3-b]pyridin-4-yl)-6-methylphenyl)-4-hydroxy-3,5-dimethylpiperid-1-yl)ethan-1-one]
2 | > 10000 nM | 60 nM | 27.4 nM | C[C@@H]1CN(C(=O)C2CC(C)(C)C2)C[C@H](C)C1(O)c1c(F)cc(-c2ccnc3[nH]cc(F)c23)cc1F (stereo partly drawn) [Compound 72, ((3S,5R)-4-(2,6-difluoro-4-(3-fluoro-1H-pyrrolo[2,3-b]pyridin-4-yl)phenyl)-4-hydroxy-3,5-dimethylpiperidin-1-yl)(3,3-dimethylcyclobutyl) methanone]
3 | 6470 nM | 32.7 nM | 14.7 nM | Cc1cc(-c2ccnc3[nH]cc(F)c23)cc(F)c1C1(O)[C@H](C)CN(C(=O)C2CC(F)(F)C2)C[C@@H]1C (stereo partly drawn) [Compound 73, (3,3-difluorocyclobutyl) ((3S,5R)-4-(2-fluoro-4-(3-fluoro-1H-pyrrolo[2,3-b]pyridin-4-yl)-6-methylphenyl)-4-hydroxy-3,5-dimethylpiperidin-1-yl)methanone]
4 | > 10000 nM | 12.2 nM | 35.3 nM | C[C@@H]1CN(C(=O)C2CC(C(F)(F)F)C2)C[C@H](C)C1(O)c1c(F)cc(-c2ccnc3[nH]cc(F)c23)cc1F (stereo partly drawn) [Compound 74, ((3S,5R)-4-(2,6-difluoro-4-(3-fluoro-1H-pyrrolo[2,3-b]pyridin-4-yl)phenyl)-4-hydroxy-3,5-dimethylpiperidin-1-yl)(3-(trifluoromethyl)cyclobutyl)methanone]
5 | 140 nM | 5 nM | 19.9 nM | C[C@@H]1CN(C(=O)CN)C[C@H](C)[C@@]1(O)c1ccc(-c2ccnc3[nH]cc(F)c23)cc1Cl [Compound 75, 2-amino-1-((3R,4s,S5S)-4-(2-chloro-4-(3-fluoro-1H-pyrrolo[2,3-b]pyridin-4-yl)phenyl)-4-hydroxy-3,5-dimethylpiperid-1-yl)ethan-1-one]
6 | 1720 nM | 18.9 nM | 29.8 nM | Cc1nc(-c2ccnc3[nH]cc(F)c23)ccc1C1(O)[C@H](C)CN(C(=O)CN)C[C@@H]1C (stereo partly drawn) [Compound 76, 2-amino-1-((3S,5R)-4-(6-(3-fluoro-1H-pyrrolo[2,3-b]pyridin-4-yl)-2-methylpyridin-3-yl)-4-hydroxy-3,5-dimethylpiperidin-1-yl)ethan-1-one]
7 | 885 nM | 19.3 nM | 24.6 nM | C[C@@H]1CN(C(=O)C(C)(C)N)C[C@H](C)C1(O)c1c(F)cc(-c2ccnc3[nH]cc(F)c23)cc1F (stereo partly drawn) [Compound 77, 2-amino-1-((3S,5R)-4-(2,6-difluoro-4-(3-fluoro-1H-pyrrolo[2,3-b]pyridin-4-yl)phenyl)-4-hydroxy-3,5-dimethylpiperidin-1-yl)-2-methylpropan-1-one]
8 | 2430 nM | 34 nM | 16.9 nM | C[C@@H]1CN(C(=O)C2(N)CC2)C[C@H](C)C1(O)c1c(F)cc(-c2ccnc3[nH]cc(F)c23)cc1F (stereo partly drawn) [Compound 78, (1-aminocyclopropyl) ((3S,5R)-4-(2,6-difluoro-4-(3-fluoro-1H-pyrrolo[2,3-b]pyridin-4-yl)phenyl)-4-hydroxy-3,5-dimethylpiperidin-1-yl)methanone]
9 | 5140 nM | 29.5 nM | 12.8 nM | C[C@@H]1CN(C(=O)C2(N)CC(F)(F)C2)C[C@H](C)C1(O)c1c(F)cc(-c2ccnc3[nH]cc(F)c23)cc1F (stereo partly drawn) [Compound 79, (1-amino-3,3-difluorocyclobutyl) ((3S,5R)-4-(2,6-difluoro-4-(3-fluoro-1H-pyrrolo[2,3-b]pyridin-4-yl)phenyl)-4-hydroxy-3,5-dimethylpiperidin-1-yl)methanone]
10 | 700 nM | 12.8 nM | 12.3 nM | C[C@@H]1CN(C(=O)CN(C)C)C[C@H](C)C1(O)c1c(F)cc(-c2ccnc3[nH]cc(F)c23)cc1F (stereo partly drawn) [Compound 80, 1-((3S,5R)-4-(2,6-difluoro-4-(3-fluoro-1H-pyrrolo[2,3-b]pyridin-4-yl)phenyl)-4-hydroxy-3,5-dimethylpiperidin-1-yl)-2-(dimethylamino) ethan-1-one]
11 | 1020 nM | 22.4 nM | 24.1 nM | C[C@@H]1CN(C(=O)[C@@H]2COCCN2)C[C@H](C)C1(O)c1c(F)cc(-c2ccnc3[nH]cc(F)c23)cc1F (stereo partly drawn) [Compound 81, ((3S,5R)-4-(2,6-difluoro-4-(3-fluoro-1H-pyrrolo[2,3-b]pyridin-4-yl)phenyl)-4-hydroxy-3,5-dimethylpiperidin-1-yl)((S)-morpholin-3-yl)methanone]
12 | 506 nM | 14.2 nM | 14.5 nM | C[C@H](N)C(=O)N1C[C@@H](C)C(O)(c2c(F)cc(-c3ccnc4[nH]cc(F)c34)cc2F)[C@@H](C)C1 (stereo partly drawn) [Compound 82, (2S)-2-amino-1-((3S,5R)-4-(2,6-difluoro-4-(3-fluoro-1H-pyrrolo[2,3-b]pyridin-4-yl)phenyl)-4-hydroxy-3,5-dimethylpiperidin-1-yl)propan-1-one]
13 | 570 nM | 21.3 nM | 25 nM | CNCC(=O)N1C[C@@H](C)C(O)(c2c(F)cc(-c3ccnc4[nH]cc(F)c34)cc2F)[C@@H](C)C1 (stereo partly drawn) [Compound 83, 1-((3S,5R)-4-(2,6-difluoro-4-(3-fluoro-1H-pyrrolo[2,3-b]pyridin-4-yl)phenyl)-4-hydroxy-3,5-dimethylpiperidin-1-yl)-2-(methylamino) ethan-1-one]
14 | 1470 nM | 10.3 nM | 21.6 nM | C[C@@H]1CN(C(=O)[C@@H]2CCCN2)C[C@H](C)C1(O)c1c(F)cc(-c2ccnc3[nH]cc(F)c23)cc1F (stereo partly drawn) [Compound 84, 4-(4-((3S,5R)-1-(L-prolyl)-4-hydroxy-3,5-dimethylpiperidin-4-yl)-3,5-difluorophenyl)-3-fluoro-1H-pyrrolo[2,3-b]pyridine]
15 | 659 nM | 4.7 nM | 5.8 nM | C[C@@H]1CN(C(=O)[C@H]2CCCN2)C[C@H](C)C1(O)c1c(F)cc(-c2ccnc3[nH]cc(F)c23)cc1F (stereo partly drawn) [Compound 85, 4-(4-((3S,5R)-1-(D-prolyl)-4-hydroxy-3,5-dimethylpiperidin-4-yl)-3,5-difluorophenyl)-3-fluoro-1H-pyrrolo[2,3-b]pyridine]
